Test results reported in patent US20250297035A1, “A PEPTIDE AND THE SELECTION METHOD THEREOF” (THE HONG KONG UNIVERSITY OF SCIENCE AND TECHNOLOGY, priority 2021, published 2025).
Read-outs that look alike come from different tables or passages of the source. Where a SMILES comes first, the peptide text is derived from it. [ ]: non-standard residue; d: D form. The star is where a group is joined. Fmoc = O=C(OCC1c2ccccc2-c2ccccc21)*; 12Ado = NCCCCCCCCCCCC(=O)O; StBu = CC(C)(C)S*

Assay: MTT assay, cytotoxicity of the peptide
Type: cell-based
Settings: read-out: cell viability
From the text: MTT assay was applied to evaluate the cytotoxicity effect of the peptide on HeLa, MCF-7, SK-N-MC, HEK293 and RAW264.7 cells (FIG. 12).

Measured: viability

CC(C)[C@H](NC(=O)[C@H](CCCCN)NC(=O)[C@H](CCCCN)NC(=O)[C@H](CCCCN)NC(=O)[C@H](CCCCN)NC(=O)[C@H](CCCCN)NC(=O)[C@@H]1CCCN1C(=O)OCC1c2ccccc2-c2ccccc21)C(=O)NCC(=O)N[C@@H](Cc1c[nH]cn1)C(=O)N[C@@H](Cc1c[nH]cn1)C(=O)N[C@@H](Cc1c[nH]cn1)C(=O)N[C@@H](Cc1c[nH]cn1)C(=O)NCCCCCCCCCCCC(=O)N[C@@H](CSSC(C)(C)C)C(=O)N[C@@H](Cc1c[nH]cn1)C(=O)N[C@@H](Cc1c[nH]cn1)C(=O)N[C@@H](CSSC(C)(C)C)C(=O)N[C@@H](CSSC(C)(C)C)C(=O)N[C@@H](Cc1c[nH]cn1)C(=O)N[C@@H](Cc1c[nH]cn1)C(=O)N[C@@H](CSSC(C)(C)C)C(=O)NCC(=O)N[C@@H](CO)C(=O)N1CCC[C@H]1C(=O)N[C@@H](Cc1c[nH]cn1)C(=O)N[C@@H](Cc1c[nH]cn1)C(=O)N[C@@H](CC(=O)O)C(=O)O [peptide_13, Fmoc-PKKKKKVG-HHHH (SEQ ID NO: 31)-C12-CstBuHHCstBuCstBuHHCstBuGSPHHD (SEQ ID NO: 39)] (Fmoc-PKKKKKVGHHHH[12Ado]C(StBu)HHC(StBu)C(StBu)HHC(StBu)GSPHHD-OH; C-terminus assumed)
> 80%: human, HEK293 cells, peptide concentration up to 4 μM | human, HeLa cells, peptide concentration up to 8 μM | human, MCF-7 cells, peptide concentration up to 8 μM | human, SK-N-MC cells, peptide concentration up to 4 μM | mouse, RAW264.7 cells, peptide concentration up to 4 μM
